Assay results: paper PMC6234229, “The role of loops B and C in determining the potentiation of GABAA receptors by midazolam” (Pharmacology Research & Perspectives, 2018)
“And” between values parts separate entries of the source, which are not always exact repeats. Equal values may be shown once.

Key:
Assay in all cases: Midazolam potentiation of EC10 GABA currents, whole-cell patch clamp, HEK293T
Type in all cases: cell-based
[1] = target: T1, α2(H101R)β2γ2 GABAA receptor (Homo sapiens, UniProt P18507+P47869+P47870, H129R); conditions: for Midazolam potentiation (%): α2(H101R)
T1 construct: expressed in transfected cells; host or cells: HEK293T
T1 sequence (P47869 29-451 H129R): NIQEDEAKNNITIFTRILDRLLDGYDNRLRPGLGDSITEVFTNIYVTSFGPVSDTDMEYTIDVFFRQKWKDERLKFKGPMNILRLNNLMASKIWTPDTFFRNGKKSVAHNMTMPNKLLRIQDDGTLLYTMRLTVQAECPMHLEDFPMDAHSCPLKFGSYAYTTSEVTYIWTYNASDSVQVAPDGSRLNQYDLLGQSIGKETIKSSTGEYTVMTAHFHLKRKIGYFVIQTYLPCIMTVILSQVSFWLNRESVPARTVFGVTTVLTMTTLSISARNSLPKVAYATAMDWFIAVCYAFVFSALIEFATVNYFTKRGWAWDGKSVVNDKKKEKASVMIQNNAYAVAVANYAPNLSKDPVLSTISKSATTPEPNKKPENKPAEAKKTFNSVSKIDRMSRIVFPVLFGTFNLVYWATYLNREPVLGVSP
T1 sequence (P47870 25-512 limits assumed): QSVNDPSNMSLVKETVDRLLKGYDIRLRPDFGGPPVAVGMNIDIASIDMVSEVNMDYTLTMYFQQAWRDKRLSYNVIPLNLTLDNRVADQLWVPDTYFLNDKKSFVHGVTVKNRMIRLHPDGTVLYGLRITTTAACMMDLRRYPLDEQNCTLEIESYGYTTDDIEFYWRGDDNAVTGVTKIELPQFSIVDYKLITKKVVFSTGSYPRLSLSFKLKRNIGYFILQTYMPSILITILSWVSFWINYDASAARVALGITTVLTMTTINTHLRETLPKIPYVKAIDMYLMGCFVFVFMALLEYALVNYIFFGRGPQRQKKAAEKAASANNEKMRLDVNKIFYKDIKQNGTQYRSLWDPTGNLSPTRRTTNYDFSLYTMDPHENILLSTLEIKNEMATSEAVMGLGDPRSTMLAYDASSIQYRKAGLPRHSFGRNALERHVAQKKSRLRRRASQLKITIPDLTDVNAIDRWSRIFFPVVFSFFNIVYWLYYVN
T1 sequence (P18507 40-467 isoform P18507-1 limits assumed, stated change not applied): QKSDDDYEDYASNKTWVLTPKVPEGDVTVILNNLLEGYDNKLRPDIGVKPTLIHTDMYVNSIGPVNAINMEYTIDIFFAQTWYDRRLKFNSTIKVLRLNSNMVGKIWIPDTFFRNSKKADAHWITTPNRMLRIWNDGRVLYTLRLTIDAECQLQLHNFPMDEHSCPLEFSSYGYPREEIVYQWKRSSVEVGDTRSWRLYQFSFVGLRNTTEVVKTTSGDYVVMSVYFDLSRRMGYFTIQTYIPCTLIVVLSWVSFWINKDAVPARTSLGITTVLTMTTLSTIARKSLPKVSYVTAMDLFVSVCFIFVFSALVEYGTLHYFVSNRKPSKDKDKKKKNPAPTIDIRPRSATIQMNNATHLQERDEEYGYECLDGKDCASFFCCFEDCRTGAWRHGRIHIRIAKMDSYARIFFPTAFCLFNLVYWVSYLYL
From the text: (§1) Human (Homo sapiens) GABAA subunits (α1‐6, β2, γ2s) were subcloned into pcDNA3.1+ vectors with a cytomegalovirus (CMV) promoter. The hβ2 and hα3 sequences were humanized rat (Rattus norvegicus) cDNA with amino acid substitutions made to match the human protein sequence. The α1‐3, α5, β2, and γ2s subunits were a generous gift from Neil L. Harrison (Columbia University Medical Center, NY). The α4 subunit was obtained from GenScript (Piscataway, NJ), and the α6 subunit was a generous gift from Robert L. McDonald (Vanderbilt University, TN). All point mutations (listed in Figure 1C) were introduced using the QuikChange Lightening site‐directed mutagenesis kit (Agilent Technologies, Santa Clara, CA) according to the manufacturer's instructions and were confirmed by sequencing (Eurofins MWG Operon, Louisville, KY).
(§2) Human embryonic kidney cells containing the SV40 T‐antigen (HEK293T) were acquired from American Type Culture Collection (ATCC®, Manassas, VA), catalogue number, CRL3216. HEK293T cells were maintained at 37°C and 5% CO2 in Eagle Minimum Essential Medium (MEM) supplemented with 5% fetal bovine serum (Atlanta Biologicals Inc., Flowery Branch, GA), 40 μM L‐glutamine, 100 U/mL penicillin and 0.1 mM streptomycin. Cells were passaged regularly when they reached 70% confluency using trypsin. Cells were not passaged more than 22 times. New cells were revived from frozen stocks at passage 2‐4. Cells used for in vitro electrophysiology experiments were grown on poly‐D‐lysine‐coated glass coverslips (No.2, VWR, Radnor, PA) and transfected with X‐tremeGENE (Roche Diagnostics, Indianapolis, IN) with the desired receptor subunit cDNAs at a 1:1:1 ratio to express αxβ2γ2s receptors (2 μg total cDNA) and with 0.5 μg green fluorescent protein (GFP) as an expression marker. The γ2s incorporation into receptors was tested with zinc inhibition assays regularly.24 Patch clamp experiments were performed on cells at 24‐72 hours post‐transfection. All experiments were performed at 22°C. Experiments consisted of at least five cells recorded per day from at least two transfections across 3‐4 days to control for cell health and transfection efficiency. At least three cells expressing wild‐type receptors were recorded on days that mutant receptors were tested to provide a time‐matched expression control. All reagents were purchased from Sigma‐Aldrich (St. Louis, MO) unless otherwise stated.
(§3) Extracellular solution contained 161 mM NaCl, 3 mM KCl, 1 mM MgCl2, 1.5 mM CaCl2, 10 mM HEPES, and 6 mM D‐glucose, adjusted to pH 7.4 with NaOH (320‐330 mOsm). […] The perfusion system was controlled by protocols written in pClamp 9 (Molecular Devices, LLC., Sunnyvale, CA). Whole‐cell currents were recorded at ‐60 mV, filtered at 100 Hz and sampled at 200 Hz with a MultiClamp 700B amplifier (Molecular Devices, LLC) and DigiData 1322A (Molecular Devices, LLC) digitizer. […] Cells were recorded with the midazolam protocol no more than two times to avoid desensitization and incomplete washout or irreversible modulation.
(§4) Recordings were analyzed using MATLAB (Math Works, Inc., Natick, MA). […] The maximum peak current, EC50 and Hill coefficient were estimated for assays from each cell. When Hill parameters are estimated from whole‐cell recordings, the changes in the parameters across receptor conditions can be ascribed to the following changes in receptor physiology. Changes in maximum current can be due to changes in the single‐channel conductance or the rate of desensitization. Changes in cell surface receptor expression can cause minor changes in maximum current, but are unlikely to occur in the time course of our experimental protocol. […] More often minor changes in the Hill coefficient are attributed to the altered homogeneity in the receptor population expressed by the HEK293T cell. For example, a shallower Hill coefficient could be caused by a shift in the population of receptors from mostly αβγ receptors to a combination of both αβ and αβγ receptors.

[2] = target: T2, α4(R100H)β2γ2 GABAA receptor (Homo sapiens, UniProt P18507+P47870+P48169, R135H)
T2 construct: expressed in transfected cells; host or cells: HEK293T
T2 sequence (P48169 36-554 R135H): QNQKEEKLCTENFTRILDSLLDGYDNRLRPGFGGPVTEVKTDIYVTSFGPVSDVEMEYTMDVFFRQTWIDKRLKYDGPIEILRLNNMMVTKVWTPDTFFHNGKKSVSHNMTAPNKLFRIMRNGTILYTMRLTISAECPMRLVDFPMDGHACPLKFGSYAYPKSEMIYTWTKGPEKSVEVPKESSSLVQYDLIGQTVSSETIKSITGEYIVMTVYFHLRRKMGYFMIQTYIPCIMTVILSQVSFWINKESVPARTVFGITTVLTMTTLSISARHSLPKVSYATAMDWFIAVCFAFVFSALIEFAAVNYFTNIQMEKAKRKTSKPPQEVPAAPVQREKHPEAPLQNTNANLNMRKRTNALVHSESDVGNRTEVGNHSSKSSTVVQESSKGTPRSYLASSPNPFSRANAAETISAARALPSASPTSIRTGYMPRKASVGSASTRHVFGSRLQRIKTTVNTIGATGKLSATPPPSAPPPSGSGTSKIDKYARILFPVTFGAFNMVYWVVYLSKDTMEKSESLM
T2 sequence (P47870 26-474 isoform P47870-1 limits assumed, stated change not applied): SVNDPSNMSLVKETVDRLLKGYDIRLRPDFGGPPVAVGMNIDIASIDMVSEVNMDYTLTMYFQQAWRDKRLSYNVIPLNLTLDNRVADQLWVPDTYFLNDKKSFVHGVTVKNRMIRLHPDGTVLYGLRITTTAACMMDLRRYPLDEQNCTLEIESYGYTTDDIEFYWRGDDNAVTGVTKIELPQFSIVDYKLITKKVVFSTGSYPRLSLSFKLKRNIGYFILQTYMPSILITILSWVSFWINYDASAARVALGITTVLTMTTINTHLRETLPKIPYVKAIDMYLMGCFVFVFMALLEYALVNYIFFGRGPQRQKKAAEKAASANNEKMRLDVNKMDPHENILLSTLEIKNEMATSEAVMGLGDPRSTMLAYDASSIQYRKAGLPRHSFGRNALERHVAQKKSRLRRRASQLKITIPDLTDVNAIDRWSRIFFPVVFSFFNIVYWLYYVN
T2 sequence (P18507 40-467 isoform P18507-1 limits assumed, stated change not applied): as the sequence (P18507 40-467 isoform P18507-1 limits assumed, stated change not applied) above
From the text: as §1, §2, §3, §4

[3] = target: T3, α2(T162P)β2γ2 GABAA receptor (Homo sapiens, UniProt P18507+P47869+P47870, T190P)
T3 construct: expressed in transfected cells; host or cells: HEK293T
T3 sequence (P47869 29-451 T190P): as the sequence (P47869 29-451 H129R) above, with R101H, T162P counted along it
T3 sequence (P47870 25-512 limits assumed): as the sequence (P47870 25-512 limits assumed) above
T3 sequence (P18507 40-467 isoform P18507-1 limits assumed, stated change not applied): as the sequence (P18507 40-467 isoform P18507-1 limits assumed, stated change not applied) above
From the text: as §1, §2, §3, §4

α1β2γ2 GABAA receptor = target: T4, α1β2γ2 GABAA receptor (Homo sapiens, UniProt P14867+P18507+P47870)
T4 construct: expressed in transfected cells; host or cells: HEK293T
T4 sequence (P14867 28-456): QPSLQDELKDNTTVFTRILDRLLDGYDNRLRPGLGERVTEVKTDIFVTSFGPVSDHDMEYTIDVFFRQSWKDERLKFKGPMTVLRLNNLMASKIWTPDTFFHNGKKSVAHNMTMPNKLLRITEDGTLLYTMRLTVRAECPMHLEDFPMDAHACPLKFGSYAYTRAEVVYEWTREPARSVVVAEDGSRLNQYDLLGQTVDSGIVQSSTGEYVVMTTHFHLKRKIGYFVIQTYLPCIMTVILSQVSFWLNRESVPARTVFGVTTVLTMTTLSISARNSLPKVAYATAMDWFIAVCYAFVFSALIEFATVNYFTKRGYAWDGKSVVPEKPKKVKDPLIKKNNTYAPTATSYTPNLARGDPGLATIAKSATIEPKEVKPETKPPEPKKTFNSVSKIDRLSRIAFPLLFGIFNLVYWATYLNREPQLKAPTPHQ
T4 sequence (P47870 26-474 isoform P47870-1 limits assumed): as the sequence (P47870 26-474 isoform P47870-1 limits assumed, stated change not applied) above
T4 sequence (P18507 40-467 isoform P18507-1 limits assumed): as the sequence (P18507 40-467 isoform P18507-1 limits assumed, stated change not applied) above
From the text: as §1, §2, §3, §4

[4] = target: T5, α4(I204S)β2γ2 GABAA receptor (Homo sapiens, UniProt P18507+P47870+P48169, I239S)
T5 construct: expressed in transfected cells; host or cells: HEK293T
T5 sequence (P48169 36-554 I239S): as the sequence (P48169 36-554 R135H) above, with H100R, I204S counted along it
T5 sequence (P47870 26-474 isoform P47870-1 limits assumed, stated change not applied): as the sequence (P47870 26-474 isoform P47870-1 limits assumed, stated change not applied) above
T5 sequence (P18507 40-467 isoform P18507-1 limits assumed, stated change not applied): as the sequence (P18507 40-467 isoform P18507-1 limits assumed, stated change not applied) above
From the text: as §1, §2, §3, §4

[5] = target: T6, α2(S205I)β2γ2 GABAA receptor (Homo sapiens, UniProt P18507+P47869+P47870, S233I)
T6 construct: expressed in transfected cells; host or cells: HEK293T
T6 sequence (P47869 29-451 S233I): as the sequence (P47869 29-451 H129R) above, with R101H, S205I counted along it
T6 sequence (P47870 25-512 limits assumed, stated change not applied): as the sequence (P47870 25-512 limits assumed) above
T6 sequence (P18507 40-467 isoform P18507-1 limits assumed, stated change not applied): as the sequence (P18507 40-467 isoform P18507-1 limits assumed, stated change not applied) above
From the text: as §1, §2, §3, §4

[6] = target: T7, α1(S206I)β2γ2 GABAA receptor (Homo sapiens, UniProt P14867+P18507+P47870, S233I)
T7 construct: expressed in transfected cells; host or cells: HEK293T
T7 sequence (P14867 28-456 S233I): as the sequence (P14867 28-456) above, with S206I counted along it
T7 sequence (P47870 25-512 limits assumed, stated change not applied): as the sequence (P47870 25-512 limits assumed) above
T7 sequence (P18507 40-467 isoform P18507-1 limits assumed, stated change not applied): as the sequence (P18507 40-467 isoform P18507-1 limits assumed, stated change not applied) above
From the text: as §1, §2, §3, §4

Cc1ncc2n1-c1ccc(Cl)cc1C(c1ccccc1F)=NC2 [midazolam]
Midazolam potentiation (%) ([1]; 10 nM MDZ + EC10 GABA): 9.85 ± 5.77% | Midazolam potentiation (%) ([1]; 50 nM MDZ + EC10 GABA): 21.72 ± 8.75% | Midazolam potentiation (%) ([1]; 100 nM MDZ + EC10 GABA): 25.17 ± 9.58% | Midazolam potentiation (%) ([1]; 500 nM MDZ + EC10 GABA): 30.08 ± 10.31% | Midazolam potentiation (%) ([1]; 1000 nM MDZ + EC10 GABA): 31.81 ± 11.79% | responsiveness to midazolam potentiation ([1]; printed α2(H102R)): abolished the ability of receptors to respond to midazolam potentiation | EC50 [2]: 74 ± 3.44 nM | Midazolam potentiation (%) ([2]; 10 nM MDZ + EC10 GABA, α4(R100H)): 26.12 ± 4.95% | Midazolam potentiation (%) ([2]; 50 nM MDZ + EC10 GABA, α4(R100H)): 54.65 ± 8.66% | Midazolam potentiation (%) ([2]; 100 nM MDZ + EC10 GABA, α4(R100H)): 87.48 ± 13.68% | Midazolam potentiation (%) ([2]; 500 nM MDZ + EC10 GABA, α4(R100H)): 117.13% | Midazolam potentiation (%) ([2]; 1000 nM MDZ + EC10 GABA, α4(R100H)): 125.77% | Max potentiation (%) ([2]; α4(R100H), Hill fit, midazolam 10-1000 nM + EC10 GABA): 113.8 ± 21.6% | Hill coefficient ([2]; α4(R100H), midazolam Hill fit): 1.187 ± 0.150 | EC50 [3]: 42 ± 2.86 nM | Midazolam potentiation (%) ([3]; 10 nM MDZ + EC10 GABA, α2(T162P)): 26.45 ± 4.06% | Midazolam potentiation (%) ([3]; 50 nM MDZ + EC10 GABA, α2(T162P)): 81.24 ± 9.43% | Midazolam potentiation (%) ([3]; 100 nM MDZ + EC10 GABA, α2(T162P)): 129.24 ± 14.94% | Midazolam potentiation (%) ([3]; 500 nM MDZ + EC10 GABA, α2(T162P)): 156.21 ± 15.70% | Midazolam potentiation (%) ([3]; 1000 nM MDZ + EC10 GABA, α2(T162P)): 150.36 ± 15.00% | Max potentiation (%) ([3]; α2(T162P), Hill fit, midazolam 10-1000 nM + EC10 GABA): 158.2 ± 15.8% | Hill coefficient ([3]; α2(T162P), midazolam Hill fit): 1.393 ± 0.073 | EC50 (α1β2γ2 GABAA receptor): 71.4 ± 5.8 nM | Midazolam potentiation (%) (α1β2γ2 GABAA receptor; 10 nM MDZ + EC10 GABA, α1β2γ2): 22.06 ± 3.46% | Midazolam potentiation (%) (α1β2γ2 GABAA receptor; 50 nM MDZ + EC10 GABA, α1β2γ2): 71.67 ± 6.40% | Midazolam potentiation (%) (α1β2γ2 GABAA receptor; 100 nM MDZ + EC10 GABA, α1β2γ2): 145.94 ± 13.37% | Midazolam potentiation (%) (α1β2γ2 GABAA receptor; 500 nM MDZ + EC10 GABA, α1β2γ2): 201.94 ± 16.80% | Midazolam potentiation (%) (α1β2γ2 GABAA receptor; 1000 nM MDZ + EC10 GABA, α1β2γ2): 215.35 ± 26.71% | Max potentiation (%) (α1β2γ2 GABAA receptor; α1β2γ2, Hill fit, midazolam 10-1000 nM + EC10 GABA): 203.0 ± 17.6% | Hill coefficient (α1β2γ2 GABAA receptor; α1β2γ2, midazolam Hill fit): 1.765 ± 0.165 | responsiveness to midazolam potentiation [4]: failed to convey any notable midazolam potentiation | Midazolam potentiation (%) ([4]; 10 nM MDZ + EC10 GABA): 9.47 ± 1.93% | Midazolam potentiation (%) ([4]; 50 nM MDZ + EC10 GABA): 13.23 ± 1.68% | Midazolam potentiation (%) ([4]; 100 nM MDZ + EC10 GABA): 16.59 ± 1.59% | Midazolam potentiation (%) ([4]; 500 nM MDZ + EC10 GABA): 20.16 ± 2.01% | Midazolam potentiation (%) ([4]; 1000 nM MDZ + EC10 GABA): 23.95 ± 2.33% | EC50 [5]: 41.7 ± 4.99 nM | Midazolam potentiation (%) ([5]; 10 nM MDZ + EC10 GABA, α2(S205I)): 21.06 ± 6.24% | Midazolam potentiation (%) ([5]; 50 nM MDZ + EC10 GABA, α2(S205I)): 54.26 ± 10.25% | Midazolam potentiation (%) ([5]; 100 nM MDZ + EC10 GABA, α2(S205I)): 86.20 ± 14.74% | Midazolam potentiation (%) ([5]; 500 nM MDZ + EC10 GABA, α2(S205I)): 102.63 ± 19.49% | Midazolam potentiation (%) ([5]; 1000 nM MDZ + EC10 GABA, α2(S205I)): 97.62 ± 20.12% | Max potentiation (%) ([5]; α2(S205I), Hill fit, midazolam 10-1000 nM + EC10 GABA): 116.4 ± 23.0% | Hill coefficient ([5]; α2(S205I), midazolam Hill fit): 1.362 ± 0.140 | EC50 [6]: 59.8 ± 4.11 nM | Midazolam potentiation (%) ([6]; 10 nM MDZ + EC10 GABA, α1(S206I)): 13.37 ± 5.70% | Midazolam potentiation (%) ([6]; 50 nM MDZ + EC10 GABA, α1(S206I)): 44.00 ± 10.96% | Midazolam potentiation (%) ([6]; 100 nM MDZ + EC10 GABA, α1(S206I)): 80.14 ± 17.04% | Midazolam potentiation (%) ([6]; 500 nM MDZ + EC10 GABA, α1(S206I)): 107.07 ± 22.95% | Midazolam potentiation (%) ([6]; 1000 nM MDZ + EC10 GABA, α1(S206I)): 108.21 ± 24.13% | Max potentiation (%) ([6]; α1(S206I), Hill fit, midazolam 10-1000 nM + EC10 GABA): 135.8 ± 23.8% and 135.8 ± 23.78 % | Hill coefficient ([6]; α1(S206I), midazolam Hill fit): 1.568 ± 0.199
